Results: ChEMBL document CHEMBL3885881, “DrugMatrix”

Species: Rattus norvegicus
Experiment: DrugMatrix - Regimen: Daily Repeat
Assay type: toxicity, organism-based, Sprague-Dawley
Design: regimen Daily Repeat, gender Male, age 6-8 weeks
Settings: in vivo, sc, route subcutaneous, […]; for ABSOLUTE BASOPHIL / ABSOLUTE EOSINOPHIL / ABSOLUTE LYMPHOCYTE / ABSOLUTE MONOCYTE / ABSOLUTE SEGMENTED NEUTROPHIL / BASOPHIL / EOSINOPHIL / ERYTHROCYTE COUNT / HEMATOCRIT / HEMOGLOBIN / LEUKOCYTE COUNT / LYMPHOCYTE / MEAN CORPUSCULAR HEMOGLOBIN / MEAN CORPUSCULAR HEMOGLOBIN CONCENTRATION / MEAN CORPUSCULAR VOLUME / MONOCYTE / NEUTROPHIL / NUCLEATED RED BLOOD CELLS / PLATELET COUNT: tissue Blood; for ALANINE AMINOTRANSFERASE / ALBUMIN / ALKALINE PHOSPHATASE / ASPARTATE AMINOTRANSFERASE / BLOOD UREA NITROGEN / CARBON DIOXIDE / CHLORIDE / CHOLESTEROL / CREATINE PHOSPHOKINASE / CREATININE / GLUCOSE / LACTATE DEHYDROGENASE / LIPASE / PHOSPHORUS / POTASSIUM / SODIUM / TOTAL BILIRUBIN / TOTAL PROTEIN / URIC ACID: tissue Plasma
[1] = 150 mg/kg, 120 h, dose level High, time 5 day
[2] = 72 h, dose 2.8 mg/Kg, dose level Low, time 3 day
[3] = 120 h, dose 2.8 mg/Kg, dose level Low, time 5 day

CN(Cc1ccc(C(C)(C)C)cc1)Cc1cccc2ccccc12 [BUTENAFINE]
ABSOLUTE BASOPHIL [1]: 0 CELLS/uL
ABSOLUTE EOSINOPHIL [1]: 60.33 CELLS/uL
ABSOLUTE LYMPHOCYTE [1]: 7925.67 CELLS/uL
ABSOLUTE MONOCYTE [1]: 152 CELLS/uL
ABSOLUTE SEGMENTED NEUTROPHIL [1]: 1062 CELLS/uL
BASOPHIL [1]: 0%
EOSINOPHIL [1]: 1%
ERYTHROCYTE COUNT [1]: 5.24 x10E6/uL
HEMATOCRIT [1]: 32.57%
HEMOGLOBIN [1]: 12.97 G/DL
LEUKOCYTE COUNT [1]: 9.2 x10E3/uL
LYMPHOCYTE [1]: 85.67%
MEAN CORPUSCULAR HEMOGLOBIN [1]: 24.87 pg
MEAN CORPUSCULAR HEMOGLOBIN CONCENTRATION [1]: 39.93 G/DL
MEAN CORPUSCULAR VOLUME [1]: 62.17 fL
MONOCYTE [1]: 1.33%
NEUTROPHIL [1]: 12%
NUCLEATED RED BLOOD CELLS [1]: 0 /100WBC
PLATELET COUNT [1]: 984.33 x10E3/uL
ALANINE AMINOTRANSFERASE [1]: 52 u/L
ALBUMIN [1]: 4.67 G/DL
ALKALINE PHOSPHATASE [1]: 373 u/L
ASPARTATE AMINOTRANSFERASE [1]: 90 u/L
BLOOD UREA NITROGEN [1]: 15.33 mg/dL
CARBON DIOXIDE [1]: 31.33 mmol/L
CHLORIDE [1]: 100.33 MEQ/L
CHOLESTEROL [1]: 54 mg/dL
CREATINE PHOSPHOKINASE [1]: 434 u/L
CREATININE [1]: 0.24 mg/dL
GLUCOSE [1]: 159.67 mg/dL
LACTATE DEHYDROGENASE [1]: 385.67 u/L
LIPASE [1]: 12.33 u/L
PHOSPHORUS [1]: 15.13 mg/dL
POTASSIUM [1]: 6.75 MEQ/L
SODIUM [1]: 146.63 MEQ/L
TOTAL BILIRUBIN [1]: 0.3 mg/dL
TOTAL PROTEIN [1]: 6.5 G/DL
URIC ACID [1]: 2.2 mg/dL
ABSOLUTE BASOPHIL [2]: 0 CELLS/uL
ABSOLUTE EOSINOPHIL [2]: 44.33 CELLS/uL
ABSOLUTE LYMPHOCYTE [2]: 13110.67 CELLS/uL
ABSOLUTE MONOCYTE [2]: 225.33 CELLS/uL
ABSOLUTE SEGMENTED NEUTROPHIL [2]: 1586.33 CELLS/uL
BASOPHIL [2]: 0%
EOSINOPHIL [2]: 0.33%
ERYTHROCYTE COUNT [2]: 5.44 x10E6/uL
HEMATOCRIT [2]: 35.13%
HEMOGLOBIN [2]: 13.83 G/DL
LEUKOCYTE COUNT [2]: 14.97 x10E3/uL
LYMPHOCYTE [2]: 87.33%
MEAN CORPUSCULAR HEMOGLOBIN [2]: 25.4 pg
MEAN CORPUSCULAR HEMOGLOBIN CONCENTRATION [2]: 39.37 G/DL
MEAN CORPUSCULAR VOLUME [2]: 64.57 fL
MONOCYTE [2]: 1.33%
NEUTROPHIL [2]: 11%
NUCLEATED RED BLOOD CELLS [2]: 0 /100WBC
PLATELET COUNT [2]: 1247.33 x10E3/uL
ALANINE AMINOTRANSFERASE [2]: 51.67 u/L
ALBUMIN [2]: 4.23 G/DL
ALKALINE PHOSPHATASE [2]: 485 u/L
ASPARTATE AMINOTRANSFERASE [2]: 87 u/L
BLOOD UREA NITROGEN [2]: 14.67 mg/dL
CARBON DIOXIDE [2]: 28.67 mmol/L
CHLORIDE [2]: 102 MEQ/L
CHOLESTEROL [2]: 81 mg/dL
CREATINE PHOSPHOKINASE [2]: 255.33 u/L
CREATININE [2]: 0.2 mg/dL
GLUCOSE [2]: 140.33 mg/dL
LACTATE DEHYDROGENASE [2]: 340.33 u/L
LIPASE [2]: 9.67 u/L
PHOSPHORUS [2]: 12.73 mg/dL
POTASSIUM [2]: 7.04 MEQ/L
SODIUM [2]: 146.23 MEQ/L
TOTAL BILIRUBIN [2]: 0.23 mg/dL
TOTAL PROTEIN [2]: 6.03 G/DL
URIC ACID [2]: 1.43 mg/dL
ABSOLUTE BASOPHIL [3]: 0 CELLS/uL
ABSOLUTE EOSINOPHIL [3]: 0 CELLS/uL
ABSOLUTE LYMPHOCYTE [3]: 12003.67 CELLS/uL
ABSOLUTE MONOCYTE [3]: 90 CELLS/uL
ABSOLUTE SEGMENTED NEUTROPHIL [3]: 1073 CELLS/uL
BASOPHIL [3]: 0%
EOSINOPHIL [3]: 0%
ERYTHROCYTE COUNT [3]: 5.4 x10E6/uL
HEMATOCRIT [3]: 34.57%
HEMOGLOBIN [3]: 13.8 G/DL
LEUKOCYTE COUNT [3]: 13.17 x10E3/uL
LYMPHOCYTE [3]: 91%
MEAN CORPUSCULAR HEMOGLOBIN [3]: 25.6 pg
MEAN CORPUSCULAR HEMOGLOBIN CONCENTRATION [3]: 39.97 G/DL
MEAN CORPUSCULAR VOLUME [3]: 64 fL
MONOCYTE [3]: 0.67%
NEUTROPHIL [3]: 8.33%
NUCLEATED RED BLOOD CELLS [3]: 0 /100WBC
PLATELET COUNT [3]: 1261 x10E3/uL
ALANINE AMINOTRANSFERASE [3]: 42.67 u/L
ALBUMIN [3]: 4.27 G/DL
ALKALINE PHOSPHATASE [3]: 339.33 u/L
ASPARTATE AMINOTRANSFERASE [3]: 85.33 u/L
BLOOD UREA NITROGEN [3]: 16.67 mg/dL
CARBON DIOXIDE [3]: 32.67 mmol/L
CHLORIDE [3]: 104.67 MEQ/L
CHOLESTEROL [3]: 68.33 mg/dL
CREATINE PHOSPHOKINASE [3]: 102 u/L
CREATININE [3]: 0.21 mg/dL
GLUCOSE [3]: 147.67 mg/dL
LACTATE DEHYDROGENASE [3]: 96.33 u/L
LIPASE [3]: 8.67 u/L
PHOSPHORUS [3]: 14.27 mg/dL
POTASSIUM [3]: 7.04 MEQ/L
SODIUM [3]: 150.5 MEQ/L
TOTAL BILIRUBIN [3]: 0.2 mg/dL
TOTAL PROTEIN [3]: 6.33 G/DL
URIC ACID [3]: 1.7 mg/dL
